ChEMBL document CHEMBL1201862, “PubChem BioAssay data set” (2004)
Active and inactive are the calls of the source. For most assays here, no stated cut-off is given here; in the data, actives have a measured EC50 and inactives only a lower limit.

How the values were obtained:
[1] = Trypanosoma cruzi growth suppression in host cells – NIH3T3 host cells, beta-gal luminescence, confirmation (AID 2044); assay type: functional, cell-based;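 further: intracellular parasites grown in NIH/3T3 mouse fibroblasts as host cells; luminescent beta-galactosidase reporter signal from transgenic T. cruzi replicating inside host cells; inhibitors lower the luminescence signal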
[2] = NIH3T3 cell viability loss – ATP luminescence, mouse fibroblasts, counter-screen, dose response (AID 2010); assay type: functional, cell-based;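 further: cells exposed to compound for about 90 hours before reading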
[3] = cells
[4] = molecular target: Glyceraldehyde-3-phosphate dehydrogenase (Homo sapiens, UniProt P04406)
[5] = luciferase reporter signal suppression in cells – H4 neuroglioma cells, luminescence, dose response (AID 1990); assay type: functional, cell-based
[6] = molecular target: Luciferin 4-monooxygenase (Photinus pyralis, UniProt P08659); assay: Counter Screen for Luciferase-based Assay Positives. [Related pubchem assays: 620, 618, 411 ]
[7] = Luminescence Cell-Based Dose Response HTS to Identify Inhibitors of 5'UTR Stem-Loop Driven Prion Protein mRNA Translation in H4 Neuroglioblastoma Cells. [Related pubchem assays: 1827 (Project Summary), 1813 (Primary HTS)]; assay type: functional
[8] = alpha-synuclein stem-loop luciferase translation blockers – H4 neuroglioma cells, luminescence, confirmation (AID 1988); assay type: functional, cell-based
[9] = tested on: HT-1080; assay: HT1080 cell viability loss – fluorescence readout (AID 620); assay type: functional, cell-based; details: Homo sapiens
[10] = molecular target: T1, Heat shock factor protein 1 (Mus musculus, UniProt P38532); assay: enhancement of HSF1-driven luciferase signal – cell-based, NIH3T3, luminescence, dose retest, confirmation (AID 435004); assay type: functional;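 further: stress induced by proteasome inhibitor MG132 added 30 min after compound; luciferase reporter driven by HSF1 response element in NIH3T3 cells; actives raise luminescence as potentiators of the MG132 stress response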
T1 sequence (P38532 whole entry): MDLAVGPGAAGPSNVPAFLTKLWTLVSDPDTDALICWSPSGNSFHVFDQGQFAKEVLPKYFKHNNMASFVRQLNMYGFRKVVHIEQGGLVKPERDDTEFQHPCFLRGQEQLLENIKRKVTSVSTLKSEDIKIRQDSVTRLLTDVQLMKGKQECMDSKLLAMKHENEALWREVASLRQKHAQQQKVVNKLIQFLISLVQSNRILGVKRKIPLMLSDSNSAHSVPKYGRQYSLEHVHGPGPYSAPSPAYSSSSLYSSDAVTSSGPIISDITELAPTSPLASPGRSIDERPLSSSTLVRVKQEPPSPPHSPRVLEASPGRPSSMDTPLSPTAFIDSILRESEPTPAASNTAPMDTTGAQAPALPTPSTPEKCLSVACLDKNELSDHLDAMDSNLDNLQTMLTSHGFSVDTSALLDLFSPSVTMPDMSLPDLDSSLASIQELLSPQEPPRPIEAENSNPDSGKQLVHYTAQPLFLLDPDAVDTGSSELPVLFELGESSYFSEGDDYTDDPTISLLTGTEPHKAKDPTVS

[11] = tested on: HEK293; assay: EBV LMP1 TES2 canonical NF-kB signalling blockers – cell-based, HEK293, luciferase, cherry-pick, dose response (AID 588343); assay type: functional; details: Homo sapiens
[12] = HEK-293T cell viability reduction – luminescence, B-cell screen hits, cytotoxicity control for BCR NF-kB inhibitor project, dose response (AID 489021); assay type: functional, cell-based;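 further: HEK-293T cells carrying an NF-kB luciferase reporter; cells exposed to compound for about 14 hours before viability readout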
[13] = molecular target: T2, Mannose-6-phosphate isomerase (Homo sapiens, UniProt P34949); assay: MPI inhibition at elevated mannose 6-phosphate – biochemical, fluorescence intensity, high mannose 6-phosphate, primary screen (AID 1220)
T2 sequence (P34949 whole entry): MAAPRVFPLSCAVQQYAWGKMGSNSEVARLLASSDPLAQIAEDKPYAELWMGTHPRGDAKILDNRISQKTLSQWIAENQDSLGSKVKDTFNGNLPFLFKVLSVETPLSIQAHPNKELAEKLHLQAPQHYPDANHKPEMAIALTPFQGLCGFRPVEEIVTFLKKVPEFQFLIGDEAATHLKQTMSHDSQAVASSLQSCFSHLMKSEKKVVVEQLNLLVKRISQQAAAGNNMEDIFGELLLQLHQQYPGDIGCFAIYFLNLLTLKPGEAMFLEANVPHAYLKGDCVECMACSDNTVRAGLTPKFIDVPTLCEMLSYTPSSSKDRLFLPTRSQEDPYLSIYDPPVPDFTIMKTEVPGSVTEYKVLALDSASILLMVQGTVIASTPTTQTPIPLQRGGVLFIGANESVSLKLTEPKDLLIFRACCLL

[14] = molecular target: T3, Replicative DNA helicase DnaB (Mycobacterium tuberculosis, UniProt P9WMR3); assay: DnaB intein splicing inhibitors, dose response, biochemical, cell-free fluorescence (AID 449749); assay type: functional
T3 sequence (P9WMR3 whole entry): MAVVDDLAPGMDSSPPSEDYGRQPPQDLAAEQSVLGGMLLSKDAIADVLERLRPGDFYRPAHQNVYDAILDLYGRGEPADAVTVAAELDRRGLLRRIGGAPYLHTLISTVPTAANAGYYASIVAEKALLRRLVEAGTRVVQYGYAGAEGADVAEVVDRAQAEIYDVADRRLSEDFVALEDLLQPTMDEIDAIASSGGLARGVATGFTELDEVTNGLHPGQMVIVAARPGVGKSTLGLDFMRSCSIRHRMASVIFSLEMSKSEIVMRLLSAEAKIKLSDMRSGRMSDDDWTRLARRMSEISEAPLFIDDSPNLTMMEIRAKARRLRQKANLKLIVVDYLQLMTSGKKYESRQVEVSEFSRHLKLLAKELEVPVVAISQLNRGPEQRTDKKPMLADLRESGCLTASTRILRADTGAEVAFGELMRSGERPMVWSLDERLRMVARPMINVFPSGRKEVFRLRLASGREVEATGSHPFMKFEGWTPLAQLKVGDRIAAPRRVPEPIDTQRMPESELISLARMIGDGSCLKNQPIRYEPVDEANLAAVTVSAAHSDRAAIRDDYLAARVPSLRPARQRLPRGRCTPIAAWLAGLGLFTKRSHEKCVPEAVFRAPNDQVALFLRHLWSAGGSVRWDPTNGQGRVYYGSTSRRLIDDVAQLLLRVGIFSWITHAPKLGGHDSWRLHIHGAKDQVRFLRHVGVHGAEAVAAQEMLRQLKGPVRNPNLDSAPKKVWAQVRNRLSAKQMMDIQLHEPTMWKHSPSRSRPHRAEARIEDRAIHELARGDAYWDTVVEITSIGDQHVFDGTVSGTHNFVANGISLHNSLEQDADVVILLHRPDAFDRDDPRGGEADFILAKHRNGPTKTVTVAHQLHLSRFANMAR

[15] = molecular target: T4, Protein RecA (Mycobacterium tuberculosis, UniProt P9WHJ3); assay: Fluorescence Cell-Free Homogeneous Dose Retest to Identify Inhibitors of RecA-Intein Splicing Activity. [Related pubchem assays (depositor defined):AID2097, AID2223, AID489010, AID492950]; assay type: functional
T4 sequence (P9WHJ3 whole entry): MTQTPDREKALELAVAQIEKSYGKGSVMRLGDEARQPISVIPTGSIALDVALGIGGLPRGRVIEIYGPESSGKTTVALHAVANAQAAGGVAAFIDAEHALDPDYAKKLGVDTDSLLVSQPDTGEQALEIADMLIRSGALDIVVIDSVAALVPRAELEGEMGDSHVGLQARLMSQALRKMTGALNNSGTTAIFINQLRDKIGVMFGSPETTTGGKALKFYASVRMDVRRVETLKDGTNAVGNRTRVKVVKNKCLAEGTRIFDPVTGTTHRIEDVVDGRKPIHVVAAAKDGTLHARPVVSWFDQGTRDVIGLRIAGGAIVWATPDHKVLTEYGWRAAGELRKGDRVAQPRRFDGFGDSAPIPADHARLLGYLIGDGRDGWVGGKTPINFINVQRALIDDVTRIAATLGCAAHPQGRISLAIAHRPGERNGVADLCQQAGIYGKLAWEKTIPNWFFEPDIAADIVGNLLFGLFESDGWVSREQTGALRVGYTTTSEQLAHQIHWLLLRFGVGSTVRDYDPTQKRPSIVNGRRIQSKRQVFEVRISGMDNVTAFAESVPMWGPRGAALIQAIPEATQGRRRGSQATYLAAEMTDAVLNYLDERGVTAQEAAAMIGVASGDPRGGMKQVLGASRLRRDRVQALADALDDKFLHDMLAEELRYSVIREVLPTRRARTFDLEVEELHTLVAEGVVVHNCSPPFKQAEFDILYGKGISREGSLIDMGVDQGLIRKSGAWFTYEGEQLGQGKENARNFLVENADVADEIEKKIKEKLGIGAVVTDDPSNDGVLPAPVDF

[16] = molecular target: T5, Histone-lysine N-methyltransferase NSD2 (Homo sapiens, UniProt O96028); assay type: biochemical
T5 sequence (O96028 whole entry): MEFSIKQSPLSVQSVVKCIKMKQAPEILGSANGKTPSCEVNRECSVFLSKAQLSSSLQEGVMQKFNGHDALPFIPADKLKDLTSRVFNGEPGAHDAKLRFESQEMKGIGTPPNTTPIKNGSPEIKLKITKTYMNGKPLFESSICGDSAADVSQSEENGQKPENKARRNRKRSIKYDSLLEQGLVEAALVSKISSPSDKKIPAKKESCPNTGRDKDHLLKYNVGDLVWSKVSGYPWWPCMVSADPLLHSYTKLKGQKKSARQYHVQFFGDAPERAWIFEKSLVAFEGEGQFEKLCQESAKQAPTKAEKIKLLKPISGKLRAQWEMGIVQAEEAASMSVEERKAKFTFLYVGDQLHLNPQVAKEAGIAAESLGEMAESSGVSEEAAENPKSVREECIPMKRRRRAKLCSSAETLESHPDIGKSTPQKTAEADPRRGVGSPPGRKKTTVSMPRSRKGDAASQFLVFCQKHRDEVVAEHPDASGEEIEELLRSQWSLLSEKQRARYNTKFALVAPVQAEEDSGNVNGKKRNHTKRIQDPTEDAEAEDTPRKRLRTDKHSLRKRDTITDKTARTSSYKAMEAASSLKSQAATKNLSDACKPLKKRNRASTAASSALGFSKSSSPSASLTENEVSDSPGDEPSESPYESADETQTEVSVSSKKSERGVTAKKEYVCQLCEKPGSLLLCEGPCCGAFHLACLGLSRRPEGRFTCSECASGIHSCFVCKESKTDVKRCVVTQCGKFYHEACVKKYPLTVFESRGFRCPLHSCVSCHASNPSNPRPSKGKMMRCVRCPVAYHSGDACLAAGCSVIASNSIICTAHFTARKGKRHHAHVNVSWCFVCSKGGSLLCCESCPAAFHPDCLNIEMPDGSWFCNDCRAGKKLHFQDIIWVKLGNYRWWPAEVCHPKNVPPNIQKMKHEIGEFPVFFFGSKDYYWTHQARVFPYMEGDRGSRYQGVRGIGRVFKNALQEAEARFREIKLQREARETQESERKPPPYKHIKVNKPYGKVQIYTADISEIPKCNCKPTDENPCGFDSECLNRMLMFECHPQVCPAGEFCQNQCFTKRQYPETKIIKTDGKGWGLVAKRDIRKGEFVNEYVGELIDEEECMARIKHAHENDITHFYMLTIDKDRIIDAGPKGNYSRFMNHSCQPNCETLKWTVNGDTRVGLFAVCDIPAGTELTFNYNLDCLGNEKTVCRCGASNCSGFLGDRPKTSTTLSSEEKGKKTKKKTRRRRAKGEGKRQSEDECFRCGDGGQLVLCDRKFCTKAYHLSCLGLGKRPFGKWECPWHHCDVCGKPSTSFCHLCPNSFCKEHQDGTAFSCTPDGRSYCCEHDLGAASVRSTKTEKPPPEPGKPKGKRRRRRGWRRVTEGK

[17] = molecular target: Estrogen receptor beta (Homo sapiens, UniProt Q92731); assay: blockers of SRC-3 recruitment to ERβ – biochemical, ELISA, streptavidin-HRP readout, orthogonal assay, confirmation (AID 1060)
Sequence of Estrogen receptor beta (Q92731 whole entry): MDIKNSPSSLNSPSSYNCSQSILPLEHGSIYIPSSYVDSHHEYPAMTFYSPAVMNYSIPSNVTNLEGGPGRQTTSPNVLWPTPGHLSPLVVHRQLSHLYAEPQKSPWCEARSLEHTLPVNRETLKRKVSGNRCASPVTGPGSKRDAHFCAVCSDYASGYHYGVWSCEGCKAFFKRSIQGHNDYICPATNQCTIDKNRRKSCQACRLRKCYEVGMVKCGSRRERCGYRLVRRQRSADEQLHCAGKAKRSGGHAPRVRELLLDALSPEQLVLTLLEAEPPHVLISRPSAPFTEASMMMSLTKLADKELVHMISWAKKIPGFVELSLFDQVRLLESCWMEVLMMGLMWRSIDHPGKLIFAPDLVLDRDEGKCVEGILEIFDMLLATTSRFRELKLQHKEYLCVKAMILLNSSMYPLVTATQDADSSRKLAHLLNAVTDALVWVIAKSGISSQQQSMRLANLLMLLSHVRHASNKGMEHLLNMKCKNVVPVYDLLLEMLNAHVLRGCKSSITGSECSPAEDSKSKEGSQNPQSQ

Sequence of Luciferin 4-monooxygenase (P08659 whole entry): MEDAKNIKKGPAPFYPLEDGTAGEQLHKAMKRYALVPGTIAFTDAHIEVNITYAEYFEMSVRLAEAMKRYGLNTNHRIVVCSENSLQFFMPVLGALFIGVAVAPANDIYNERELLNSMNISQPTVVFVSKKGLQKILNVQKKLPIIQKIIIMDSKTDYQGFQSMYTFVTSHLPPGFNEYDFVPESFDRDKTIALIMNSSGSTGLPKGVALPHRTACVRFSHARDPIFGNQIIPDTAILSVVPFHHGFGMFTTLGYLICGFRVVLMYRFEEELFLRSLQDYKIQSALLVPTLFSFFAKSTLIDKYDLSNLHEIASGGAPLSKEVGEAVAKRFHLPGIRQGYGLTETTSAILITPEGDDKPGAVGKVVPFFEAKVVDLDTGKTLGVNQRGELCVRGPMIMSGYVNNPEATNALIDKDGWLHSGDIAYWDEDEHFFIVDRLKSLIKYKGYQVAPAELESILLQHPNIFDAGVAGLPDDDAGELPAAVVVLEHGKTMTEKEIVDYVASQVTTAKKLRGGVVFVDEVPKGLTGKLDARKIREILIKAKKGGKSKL
Sequence of Glyceraldehyde-3-phosphate dehydrogenase (P04406 whole entry): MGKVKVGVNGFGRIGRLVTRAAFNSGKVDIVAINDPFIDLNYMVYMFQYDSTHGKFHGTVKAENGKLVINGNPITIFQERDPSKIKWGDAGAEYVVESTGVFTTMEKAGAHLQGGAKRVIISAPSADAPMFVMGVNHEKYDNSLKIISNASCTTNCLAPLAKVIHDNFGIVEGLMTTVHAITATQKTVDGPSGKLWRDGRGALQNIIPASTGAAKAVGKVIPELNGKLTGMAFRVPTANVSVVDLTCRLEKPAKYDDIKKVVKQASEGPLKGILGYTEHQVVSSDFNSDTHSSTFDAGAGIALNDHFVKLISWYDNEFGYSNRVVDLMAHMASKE

SMILES: COCc1cc(CN2CCCC(C(=O)Nc3cccc(-n4cnnn4)c3)C2)ccc1OC (stereo not drawn)
- EC50 [1]: < 0.1 µM (active)
- EC50 [2]: > 60 µM (not active)
- EC50 [3]: 0.061 µM (active)

SMILES: CSCCC(=O)N(C)CC1CCCN(CCc2cccc(C(F)(F)F)c2)C1 (stereo not drawn)
- EC50 [1]: < 0.1 µM (active)
- EC50 [2]: > 60 µM (not active)
- EC50 [3]: 0.329 µM (active)

SMILES: O=C1C(Cl)=C(N2CCN(Cc3ccccc3)CC2)C(=O)N1c1ccnc(Cl)c1
- IC50 [4]: > 50 µM (inconclusive)

SMILES: Cc1ccc(C(=O)CSc2nnnn2C(C)C)c(C)c1
- EC50 [5]: 9.17 µM (active)
- EC50 [6]: 8.28 µM (active)
- EC50 [7]: 14.7 µM (active)
- EC50 [8]: 3.7 µM (active)
- EC50 [9]: > 50 µM (not active)
- EC50 [10]: > 260 µM (inactive)
- AC50 [11]: 2.92 µM (active)

SMILES: COc1ccc(-c2noc(CCCC(=O)Nc3ccc(C(N)=O)cc3)n2)cc1
- IC50 [12]: > 80 µM (inactive)

SMILES: Cc1cc(-c2csc(N)n2)c(C)n1CCC(C)C
- EC50 [6]: 16 µM (active)
- EC50 [9]: > 50 µM (not active)

SMILES: CC1=Nc2cccc3cccc(c23)N1C
- IC50 [13]: > 50 µM (not active)
- AC50 [14]: > 380 µM (inactive)
- EC50 [15]: > 380 µM (inactive)
- AC50 [16]: 1.25 µM (active)

SMILES: CC(=N)/C(C#N)=C(/O)CSc1nnnn1-c1ccccc1
- IC50 [17]: > 50 µM (not active)

SMILES: CCc1ccc(NC(=O)CSc2nc(C)cc(O)n2)cc1
- IC50 [17]: 48.8 µM (not active)
